From article PMC8086025, “A benzopyran with antiarrhythmic activity is an inhibitor of Kir3.1-containing potassium channels” (The Journal of Biological Chemistry, 2021)
pIC50, pKi: −log10 of the molar value. Values joined by “and” are separate entries in the source; they are usually repeats but may differ in a detail not shown here. Equal values may be shown once. Read-outs that look alike come from different tables or passages of the source.

Experiments:
[1] = Rat PK, IV/PO cross over and brain penetration; type: in vivo
Kv1.7 = Kv1.7 (Homo sapiens, UniProt Q96RP8); experiment: Cloned cardiac ion channel electrophysiology, Kv1.7; type: cell-based
Experimental: Table S7-1. Table detailing composition (in mM) of external experimental assay solutions […]
%Inhibition = (1 − IIntervention/IControl) × 100
Equation 1 – Percentage Inhibition
Inhibition of current (or leak-subtracted current) was calculated from steady-state current recorded in the absence (IControl) and presence of test-article (IIntervention).
Equation 2 – Concentration-response curve
Concentration-response data were fitted with a sigmoidal function of the form above, where YMin and YMax represent maximum and minimum current inhibition which were constrained to 100 and 0 respectively and x is the Log[DRUG (M)] based on GraphPad Prism analysis. % inhibition was calculated as in Equation 1.
(also on this page, place not known: […] […] + −+= − HnxLogIC MinMax Min YYYInhibition )( 50101 )(% inhi bition Log[ DRUG analysis .) […]

[2] = Plasma protein binding, dog; type: in vitro ADME; conditions: read-out: Dog PPB (converted)
[3] = biological target: Kir3.4/4(N179D) channel mutant (Homo sapiens, UniProt P48544, N179D); type: cell-based; conditions: 1 μM, TEVC
α1 adrenergic receptor = experiment: Radioligand binding, [3H]prazosin; parameters: species or system rat
Nav = experiment: Radioligand binding, rat cerebral cortex
[4] = biological target: T1, Non-steroid nuclear receptors PPARγ (Homo sapiens, UniProt P37231); experiment: Radioligand binding, [3H]rosiglitazone; conditions: read-out: % Specific Binding at 10 µM
T1 construct: purchased; host or cells: E. coli

[5] = Plasma protein binding, human; type: in vitro ADME; conditions: read-out: Human PPB (converted)
[6] = biological target: T2, Kir3.4/4(S143F) channel mutant (Homo sapiens, UniProt P48544, S143F); experiment: TEVC in Xenopus oocytes, Kir3.4/4(S143F); type: cell-based; conditions: read-out: IC50, inhibition of Kir3.4/4(S143F)
T2 construct: expressed in transfected cells; host or cells: Xenopus laevis oocytes (cRNA injection)

Kir3.1/4 channel = biological target: T3, Kir3.1/4 channel (Homo sapiens, UniProt P48544+P48549); experiment: TEVC in Xenopus oocytes, Kir3.1/4; type: cell-based; parameters: expressed in transfected cells; host or cells: Xenopus laevis oocytes (cRNA injection)
T3 sequence (P48549 1-501): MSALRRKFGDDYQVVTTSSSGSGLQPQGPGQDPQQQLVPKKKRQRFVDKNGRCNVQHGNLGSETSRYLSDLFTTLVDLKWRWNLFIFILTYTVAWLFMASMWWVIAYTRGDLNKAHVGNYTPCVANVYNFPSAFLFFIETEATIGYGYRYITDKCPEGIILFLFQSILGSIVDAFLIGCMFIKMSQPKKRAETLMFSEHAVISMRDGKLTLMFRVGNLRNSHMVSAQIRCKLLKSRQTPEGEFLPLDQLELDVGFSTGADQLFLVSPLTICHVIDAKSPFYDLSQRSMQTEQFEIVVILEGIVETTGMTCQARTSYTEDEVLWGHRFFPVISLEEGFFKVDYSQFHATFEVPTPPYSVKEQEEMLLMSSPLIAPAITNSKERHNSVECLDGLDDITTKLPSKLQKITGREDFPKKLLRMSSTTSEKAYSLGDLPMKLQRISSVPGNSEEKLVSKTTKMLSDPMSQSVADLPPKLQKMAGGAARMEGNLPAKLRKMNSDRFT
T3 sequence (P48544 1-419): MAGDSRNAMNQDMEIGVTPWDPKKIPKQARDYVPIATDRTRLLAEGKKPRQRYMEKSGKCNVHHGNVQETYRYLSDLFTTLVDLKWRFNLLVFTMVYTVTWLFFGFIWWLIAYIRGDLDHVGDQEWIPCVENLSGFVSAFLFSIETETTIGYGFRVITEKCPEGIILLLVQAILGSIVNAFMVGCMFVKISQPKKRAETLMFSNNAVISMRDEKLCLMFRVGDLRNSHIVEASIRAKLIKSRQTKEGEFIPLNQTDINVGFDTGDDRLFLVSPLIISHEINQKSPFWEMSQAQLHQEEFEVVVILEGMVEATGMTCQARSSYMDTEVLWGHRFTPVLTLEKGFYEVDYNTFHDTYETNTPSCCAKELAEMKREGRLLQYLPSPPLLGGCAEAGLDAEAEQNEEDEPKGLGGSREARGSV
Experimental: (§1) X. laevis oocytes were isolated and microinjected as previously described ([6]). Human Kir3.1, mouse Kir3.2, and human Kir3.4 DNA constructs were used for electrophysiology experiments. All cRNA constructs were injected in the amount of 2 ng per oocyte. Injected oocytes were incubated for 2 to 3 days at 18 °C to allow for expression. Whole-cell oocyte currents were then measured using a GeneClamp 500 amplifier (Axon Instruments). Microelectrodes had resistances of 0.5 to 1 megohm using a 3M KCl solution in 1.4% agarose. Oocytes were perfused with a low K^+ (LK) solution ND96 (2 mM KCl, 96 mM NaCl, 1 mM MgCl2, 1.8 mM CaCl2, 5 mM HEPES-Na) to establish a baseline for the recordings. Basal current was measured in a high potassium (HK) solution ND96K (96 mM KCl, 10 mM HEPES-K, 1 mM MgCl2, 1.8 mM CaCl2). To block the current, the oocyte chamber was perfused with 4 mM BaCl2 in ND96K. Only the Barium-sensitive current was used for statistical analysis. To measure the inhibitory activity of the channels, 1 μM BP-G1 in ND96K (HK) was used. Typically, oocytes were held at 0 mV (EK) and the current was monitored constantly using a ramp protocol with a command potential from −80 to +80 mV. Current amplitude was measured at the end of a 1 s sweep. All currents were analyzed when they reached steady state. Error bars in the figures represent SD (N > 4).

Kir3.4 = biological target: T4, Kir3.4 (Homo sapiens, UniProt P48544); experiment: Cloned cardiac ion channel patch clamp, Kir3.4; type: cell-based
T4 construct: expressed in transfected cells

Kir3.1(D173A) mutant = biological target: T5, Kir3.1(D173A) mutant (Homo sapiens, UniProt P48544+P48549, D173A); experiment: TEVC in Xenopus oocytes, Kir3.1(D173A)/4; type: cell-based; conditions: 1 μM
T5 construct: expressed in transfected cells; host or cells: Xenopus laevis oocytes (cRNA injection)
Experimental: as §1

Sequence of Kir3.4/4(N179D) channel mutant (P48544 whole entry N179D, one chain of several): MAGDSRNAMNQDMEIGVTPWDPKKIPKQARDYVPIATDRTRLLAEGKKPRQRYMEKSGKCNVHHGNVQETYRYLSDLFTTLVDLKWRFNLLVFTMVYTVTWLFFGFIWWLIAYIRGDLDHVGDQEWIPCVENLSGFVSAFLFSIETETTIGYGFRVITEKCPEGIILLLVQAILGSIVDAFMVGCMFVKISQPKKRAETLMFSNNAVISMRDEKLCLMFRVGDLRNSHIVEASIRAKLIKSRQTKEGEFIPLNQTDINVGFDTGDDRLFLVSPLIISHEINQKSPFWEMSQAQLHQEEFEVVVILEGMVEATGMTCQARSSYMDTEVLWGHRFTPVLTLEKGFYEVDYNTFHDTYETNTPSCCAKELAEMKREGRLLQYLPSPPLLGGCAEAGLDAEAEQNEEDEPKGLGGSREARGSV
Sequence of Kv1.7 (Q96RP8 whole entry): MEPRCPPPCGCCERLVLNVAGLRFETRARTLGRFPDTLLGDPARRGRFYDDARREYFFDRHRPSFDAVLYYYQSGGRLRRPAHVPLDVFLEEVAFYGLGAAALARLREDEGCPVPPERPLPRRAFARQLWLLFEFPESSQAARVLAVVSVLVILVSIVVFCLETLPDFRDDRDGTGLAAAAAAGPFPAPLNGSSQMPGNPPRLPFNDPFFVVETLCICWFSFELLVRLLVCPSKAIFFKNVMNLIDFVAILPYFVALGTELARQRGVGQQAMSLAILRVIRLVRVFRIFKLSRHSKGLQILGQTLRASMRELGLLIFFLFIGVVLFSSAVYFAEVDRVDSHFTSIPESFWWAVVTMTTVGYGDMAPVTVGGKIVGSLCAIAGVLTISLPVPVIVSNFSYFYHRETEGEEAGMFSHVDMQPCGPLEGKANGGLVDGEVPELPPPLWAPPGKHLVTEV
T5 sequence (P48549 whole entry D173A, one chain of several): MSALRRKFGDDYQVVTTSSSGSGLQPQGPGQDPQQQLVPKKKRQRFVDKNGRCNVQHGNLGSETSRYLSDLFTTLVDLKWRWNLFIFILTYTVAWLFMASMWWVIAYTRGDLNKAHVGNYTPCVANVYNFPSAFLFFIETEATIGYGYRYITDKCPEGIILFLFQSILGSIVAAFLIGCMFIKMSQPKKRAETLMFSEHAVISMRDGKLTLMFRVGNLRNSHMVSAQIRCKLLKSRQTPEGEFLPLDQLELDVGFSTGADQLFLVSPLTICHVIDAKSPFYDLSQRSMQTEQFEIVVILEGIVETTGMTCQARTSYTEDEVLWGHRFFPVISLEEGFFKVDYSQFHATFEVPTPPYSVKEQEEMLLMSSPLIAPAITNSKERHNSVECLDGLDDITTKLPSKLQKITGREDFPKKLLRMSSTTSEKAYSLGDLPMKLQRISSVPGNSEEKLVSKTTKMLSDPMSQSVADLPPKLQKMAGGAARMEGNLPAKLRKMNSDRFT
T2 sequence (P48544 whole entry S143F, one chain of several): as the sequence (P48544 whole entry N179D, one chain of several) above, with S143F, D179N counted along it
T1 sequence (P37231 whole entry): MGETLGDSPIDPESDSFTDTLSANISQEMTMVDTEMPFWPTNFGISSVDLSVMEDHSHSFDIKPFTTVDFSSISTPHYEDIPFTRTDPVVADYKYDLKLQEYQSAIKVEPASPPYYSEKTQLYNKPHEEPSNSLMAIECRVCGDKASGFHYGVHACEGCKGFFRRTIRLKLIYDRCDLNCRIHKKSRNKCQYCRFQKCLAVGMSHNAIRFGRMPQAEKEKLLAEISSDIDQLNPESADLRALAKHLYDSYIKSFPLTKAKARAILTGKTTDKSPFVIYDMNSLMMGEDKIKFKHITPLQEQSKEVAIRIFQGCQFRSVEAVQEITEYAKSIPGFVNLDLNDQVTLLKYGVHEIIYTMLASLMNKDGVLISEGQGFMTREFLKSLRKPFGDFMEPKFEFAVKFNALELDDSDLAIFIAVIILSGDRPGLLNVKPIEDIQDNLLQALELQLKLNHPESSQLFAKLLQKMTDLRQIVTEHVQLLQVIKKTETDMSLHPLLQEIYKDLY

Molecule `Cc1cc(CO)nc2cc3c(cc12)OC(C)(C)[C@H](O)[C@H]3NCCc1ccccc1` [BP-G1, (3R,4S)-7-(hydroxymethyl)-2,2,9-trimethyl-4-(2-phenylethylamino)-3,4-dihydropyrano[2,3-g]quinolin-3-ol] has a Co ([1]; 1mg/kg iv.) of 3941 ng/mL, a CL ([1]; 5mg/kg po.) of 3.3 mL/min/kg and a Kp ([1]; rat, brain and plasma, 5mg/kg po., read-out: CNS Penetration (B:P)) of 0.2. For the same molecule, the Vd ([1]; rat, in vivo, 1mg/kg iv.) was 1 L/kg, the clearance ([1]; rat, in vivo, 1mg/kg iv.) was 3.39 mL/min/kg and the bioavailability ([1]; rat, in vivo, 1mg/kg iv. / 5mg/kg po., read-out: Oral bioavailability F%) was 32%. It also gave an AUC(0-inf) ([1]; rat, in vivo, 1mg/kg iv., read-out: Rat iv. AUC∞) of 4950 ng·h/mL, a Cmax ([1]; rat, in vivo, 5mg/kg po.) of 1190 ng/mL and an AUC(0-t) ([1]; rat, in vivo, 5mg/kg po., read-out: Rat p.o. AUCt) of 6420 ng·h/mL. For the same molecule, the AUC(0-inf) ([1]; rat, in vivo, 5mg/kg po., read-out: Rat p.o. AUC∞) was 16800 ng·h/mL, the half-life ([1]; rat, in vivo, listed under 5mg/kg po.) was 12.2 h and the pIC50 (Kv1.7) was 5.15. The fraction unbound [2] was 0.06, the “inhibition of Kir3.4/4(N179D)” value [3] was “did not inhibit” and the pIC50 (α1 adrenergic receptor) was 4.89. The “% Specific Binding at 10 µM” value (α1 adrenergic receptor) was 55.6%, the “% Specific Binding at 10 µM” value (α1 adrenergic receptor; listed as Benzopyran-G1) was 55.567% and the pKi (α1 adrenergic receptor; read-out: Ki, α1 (non-selective)) was 5.46. For the same molecule, the “% Specific Binding at 10 µM” value (Nav) was 65.1%, the “% Specific Binding at 10 µM” value (Nav; listed as Benzopyran-G1) was 65.100% and the inhibition at 10 µM [4] was under 50%. For the same molecule, the fraction unbound [5] was 0.03, the pIC50 [6] was 7.21 and the “current block, wild-type Kir3.1/4” value (Kir3.1/4 channel; 1 μM, TEVC) was 75 to 80%. The pIC50 (Kir3.1/4 channel; TEVC oocyte experiments, read-out: IC50, inhibition of Kir3.1/4) was 7.26 and 7.25, the pIC50 (Kir3.4) was 4.70 and the “current block, Kir3.1(D173A)” value (Kir3.1(D173A) mutant) was about 25%.
